Results reported in patent US20260306525A1, “COMBINATION THERAPY GLUCOCORTICOIDS AND GINSENOSIDE” (FYTAGORAS B.V., priority 2023, published 2026).

How the values were obtained:
neutrophils = assay: zebrafish tail fin wounding assay, neutrophil migration to wounded site; assay type: in vivo, zebrafish (Danio rerio)
Description: (§1) Zebrafish (Danio rerio) were maintained and handled according to the guidelines from the Zebrafish Model Organism Database (http://zfin.org) and in compliance with the directives of the local animal welfare committee of Leiden University. Zebrafish were exposed to a 14 h light and 10 h dark cycle to maintain circadian rhythmicity. Fertilization was performed by natural spawning at the beginning of the light period. […] The following zebrafish lines were used in this study: the double transgenic line Tg(mpx:GFP^i114/mpeg1:mCherry^umsF001), in which neutrophils and macrophages are fluorescently labeled (green and red, respectively), and the Tg(9xGCRE-HSV.UI23:EGFP)^ia20 reporter line, in which the gene encoding enhanced green fluorescent protein (EGFP) is driven by a GRE-containing promoter.
(§2) For the tail fin wounding experiments, 20 larvae at 2 or 3 days post-fertilization (dpf) were utilized for each experimental group. For wounding, larvae were anesthetized in egg water containing 0.02% buffered aminobenzoic acid ethyl ester (tricaine; Sigma-Aldrich). Larvae were placed on Petri dishes coated with 2% agarose under a Leica M165C stereomicroscope (Leica Microsystems, Wetzlar, Germany), and the tails were partly amputated using a 1-mm sapphire blade (World Precision Instruments, Sarasota, FL, USA). For quantification of leukocyte migration, larvae were fixed overnight in 4% paraformaldehyde (PFA) at 4° C. The next day, fixed larvae were washed with Phosphate Buffered Saline (PBS) containing 0.1% Tween 20, and stored at 4° C. until imaging.
(§3) The macrophages were detected based on their red (mCherry) fluorescence, and neutrophils based on their green (EGFP) fluorescence. To quantify the number of macrophages and neutrophils recruited to the wounded area, the cells in a defined area of the tail were determined by blinded manual counting.
(§4) Zebrafish (Danio rerio) were maintained and handled according to the guidelines from the Zebrafish Model Organism Database (http://zfin.org) and in compliance with the directives of the local animal welfare committee of Leiden University. Zebrafish were exposed to a 14 h light and 10 h dark cycle to maintain circadian rhythmicity. Fertilization was performed by natural spawning at the beginning of the light period. […] The following zebrafish lines were used in this study: AB/TL wild type, the transgenic lines Tg(mpx:GFP^i114/mpeg1:mCherry^umsF001)[14, 15], and Tg(9xGCRE-HSV.UI23:EGFPia^20)[16], and the mutant lines grs357[20].
(§5) For the tail fin wounding experiments, 2- or 3-days post-fertilization (dpf) larvae were anesthetized in egg water containing 0.02% buffered aminobenzoic acid ethyl ester (tricaine; Sigma-Aldrich). Larvae were placed in Petri dishes coated with 2% agarose under a Leica M165C stereomicroscope (Leica Microsystems, Wetzlar, Germany), and the tails were partly amputated using a 1-mm sapphire blade (World Precision Instruments, Sarasota, FL, USA).
(§6) In experiments in which the leukocyte migration was used as a readout, larvae were subjected to treatment with chemicals as indicated, starting at 2 h before the amputation (pretreatment), and treatment was continued for 4 h after the tail fin amputation (20 larvae per group, unless indicated otherwise). In some experiments, a 24 h treatment with MZ31 (10 μM) was started at 2 dpf, and these treatments were continued during the pretreatment and treatment with the other chemicals. At 4 h after amputation, the larvae were fixed in 4% paraformaldehyde (PFA) overnight at 4° C. The next day, fixed larvae were washed with Phosphate Buffered Saline (PBS) containing 0.1% Tween 20 and stored at 4° C. until imaging. […] The macrophages were detected based on red (mCherry) fluorescence and neutrophils on their green (EGFP) fluorescence. To quantify the number of macrophages and neutrophils recruited to the wounded area, the cells in a defined area of the tail were determined by blinded manual counting. […]

macrophages = assay: zebrafish tail fin wounding assay, macrophage migration to wounded site; assay type: in vivo, zebrafish (Danio rerio); conditions: Example 3, ginsenoside Re
Description: as §1, §2, §3, §4, §5, §6

zebrafish larvae [1] = assay: whole-body cortisol measurement of zebrafish larvae (ELISA); conditions: Example 3, ginsenoside Re
zebrafish larvae [2] = assay: tail fin regeneration assay
[3] = micelle formation from dried film dissolved in H2O; appearance of solution; assay type: physicochemical
Description: Dried leaves of the plant Panax ginseng (8 gram) were boiled in water (350 mL), filtrated and loaded on a 20 mL Bed Volume (BV) column filled with macroporous resin (type D101). After extensively washing with water (15 BV's) the ginsenosides were eluted with 60% EtOH. The ginsenoside solution was decolorized by passing through a 20 mL BV column filled with type D941 macroporous resin. Subsequently, the solvents were slowly evaporated, after at 80° C. under reduced pressure (375 hPa) using a glass vials and a evaporator (P12-Multivapor, Buchi). After evaporation of both the ethanol and the water, a transparent film was formed on the wall of the glass vial.
In parallel 100 mg pure Re was solved in 10 mL of ethanol. […] The ethanol was slowly removed at 80° C. under low pressure (375 hPa) using a glass vials and a evaporator (P12-Multivapor). Again a clear film was formed on the wall of the glass tubes.
Micelle formation of ginsenoside extract obtained from dried leaves as described above was repeated in the presence of 0.6 mg of dexamethasone. Dexamethasone was first dissolved in ethanol in a concentration of 10 mg/mL and 0.6 mg of dexamethasone was added to the ethanolic ginsenoside fraction obtained after purification and decolorization by D101 and D941 resins respectively, using the method described herein above. The content of Re and Rg1 in this ethanolic ginsenoside fraction was 4 mg/10 mL as determined by HPLC (see below). The molecular ratio between dexamethasone and Re/Rel in this solution was around 5:70. The ethanol fraction was slowly removed at 80° C. under reduced pressure (375 hPa) using a glass vials and a evaporator to obtain a film. […] The content and the presence of micelles were assessed by size exclusion chromatography as described below.

zebrafish larvae [4] = assay: whole-body glucose measurement of zebrafish larvae; conditions: Example 3, ginsenoside Re
[5] = rule of thumb, literature table; cited from earlier work
[6] = size exclusion chromatography of micelles (Sephadex G50) with HPLC; assay type: physicochemical
Description: The size and content of the micelles were determined by means of size exclusion chromatography. 1 mL of aqueous ginsenoside/dexamethasone solution was loaded on a Sephadex G50 size exclusion column (size 25×1 cm) and eluted under gravity with water. Blue dextran (MW=2.000.000 Da) and erythrosine (880 Da) were used as molecular weight markers. Fractions of 2.0 mL were collected. The fractions were dried and dissolved in 70% methanol and the ginsenoside content was analyzed by means of HPLC. HPLC conditions were: • HPLC equipment: HPLC/DAD Aligent 1200 series, a quaternary pump connected to a DAD and autosampler. • Stationary phase: Kinetex 2.6 μm, C18 100 Å, 100×4.6 mm-Phenomenex, USA • Mobile phase: • A: 0.03% o-phosphoric acid (H3PO4) in Ultrapure H2O • B: 0.03% o-phosphoric acid (H3PO4) in Acetonitrile (LiChrosolv, Millipore-Merck, Darmstadt, Germany; quality far UV) • Gradient:
• Conditions • Flow: 0.8 ml/min • Injection volume: 20 μL • Column temperature: 35° C. • Detection wavelength: 203 and 241 nm

gr = assay: Gr transactivation activity in Tg(9xGCRE-HSV.UI23:EGFP)ia20 reporter larvae; assay type: in vivo, zebrafish (Danio rerio); conditions: 24 h from 2 dpf; 10 μM GC, 50 μM Rg1 or combination
Description: (§7) To investigate the Gr transactivation activity in zebrafish larvae, the Tg(9xGCRE-HSV.UI23:EGFP)^ia20 reporter line was used, which expresses enhanced green fluorescent protein (EGFP) under the control of a promoter containing an array of nine GREs. […] The integrated intensity of the EGFP signal in the larvae was determined using ImageJ software.
as §7, with “Tg(9xGCRE-HSV.UI23:EGFP^ia20)” for “Tg(9xGCRE-HSV.UI23:EGFP)^ia20”

Row | SMILES | migration of neutrophils to the wounded tail area (neutrophils; Example 3, ginsenoside Re) | migration of macrophages (macrophages) | whole body cortisol (zebrafish larvae [1]) | regenerative tissue (zebrafish larvae [2]; Example 3, ginsenoside Re) | appearance of solution in ethanol ([3]; 100 mg in 10 mL of ethanol) | appearance of solution in H2O after dissolving the film ([3]; film from ethanol (or 60% EtOH) evaporation, dissolved in H2O) | micelle formation / crystallization in H2O ([3]; microscopic determination, 10 mL H2O) | whole body glucose (zebrafish larvae [4]) | neutrophil migration to the wounded site (neutrophils; 10 μM dexamethasone) | dose equivalent to a 5 mg prednisone dose [5] | regeneration of amputated tail fin (length of regenerated tissue at 5 dpf) (zebrafish larvae [2]; 0-5 dpf, 10 μM beclomethasone or dexamethasone, 50 μM Rg1 or combinations, amputation at 2 dpf) | detection of free dexamethasone in fractions after 55 mL [6] | co-elution of dexamethasone with micelles / encapsulation ([6]; Sephadex G50 fractions) | relative EGFP intensity (Gr transactivation) (gr)
1 | CC(C)=CCC[C@](C)(O[C@@H]1O[C@H](CO)[C@@H](O)[C@H](O)[C@H]1O)[C@H]1CC[C@]2(C)[C@@H]1[C@H](O)C[C@@H]1[C@@]3(C)CC[C@H](O)C(C)(C)[C@@H]3[C@@H](O[C@@H]3O[C@H](CO)[C@@H](O)[C@H](O)[C@H]3O[C@@H]3O[C@@H](C)[C@H](O)[C@@H](O)[C@H]3O)C[C@]12C [Re, (3β, 6α, 12β)-20-(β-D-Glucopyranosyloxy)-3, 12-dihydroxydammar-24-en-6-yl 2-O-(6-deoxy-α-L-mannopyranosyl)-β-D-glucopyranoside] | inhibited the migration of neutrophils to the wounded tail area | did not inhibit the migration of macrophages | no side effects could be observed | did not affect regenerative tissue | clear solution | cloudy solution | crystallization of Re (FIG. 12B) and no micelles were obtained | no side effects could be observed | – | – | – | – | – | –
2 | C[C@@H]1C[C@H]2[C@@H]3CCC4=CC(=O)C=C[C@]4(C)[C@@]3(F)[C@@H](O)C[C@]2(C)[C@@]1(O)C(=O)CO [dexamethasone, reference compound] | – | – | – | – | – | – | – | – | did not affect neutrophil migration | about 0.75 mg | dexamethasone-induced inhibition of the regenerative process | could not be detected in these fractions | co-eluted with the Re and Rg1 containing micelles | significantly increased the relative EGFP intensity
